Results reported in US20180340933A1, “Soybean Allergy Related Epitopes” (Fraunhofer-Gesellschaft zur Foerderung der angewandten …, priority 2015, published 2018).
Ends that are not written are not given here.

Experiments:
Type in all cases: binding, human
[1] = tested on: IgG of sera from soybean-sensitive patients; test: Peptide microarray, immune status of soybean-sensitive patients: IgG detection; conditions: sera from 50 patients, diluted 1:50; positive = signal to noise ratio above 5
Excerpt: (§1) Epitope candidates were supplied externally (Neundorf, University of Cologne, Germany). The peptide is synthesised with the following structure: Ac-N-epitope sequence-C-Ebes-Lys(γ-N3)-amide (Ebes=amino-3,6-dioxaoctyl-succinamic acid). The peptide sequences were based on either the naïve soybean protein sequence (Pr) or the mimotope from phage display experiment (Ph). The peptide length varied between eight and nineteen amino acids. Glass slides were coated with Dibenzocyclooctyl (DBCO). The peptides were immobilized using different concentrations (81 ng/μl, 27 ng/μl or 9 ng/μl) on glymo-covered slides using click chemistry.
(§2) Each slide was blocked for 30 min with PBS containing 0.1% (v/v) Tween-20 and 1% (w/v) BSA, pH 7.4. For the incubation with sera cover slides (HybriWell™. 60 mm×21 mm×0.15) were used. Sera from 50 patients with differently intense prick reaction to soy milk were tested. The slides were incubated with 100 μl sera from the soybean-sensitive patients diluted 1:50 in blocking buffer overnight at 4° C. After two washes in washing buffer (PBS containing 0.1% (v/v) Tween-20, pH 7.4) the slides were shaken at 200 rpm for 60 min in a mouse-anti human IgE antibody (Abcam, Cambridge, UK, ab99834) diluted to 100 ng/ml or goat-anti human IgG antibody Cy5 (Abcam, Cambridge, UK, ab97172) diluted to 100 ng/ml in blocking buffer. After two further washes, bound IgG and IgE were detected by incubating the array for 60 min at room temperature with the secondary Cy5-labeled goat anti-mouse antibody (life technologies, Thermo Fisher Scientific, Waltham, Mass., USA, A10524) diluted to 400 ng/ml in blocking buffer. Fluorescence signals on the array were detected in a microarray reader (Geneprix 4200A) at 635 nm and the data were evaluated using GenePix® Pro 6 software to determine the signal intensity of each peptide spot. The software calculated the signal to noise ratio (SNR) for every spot. An overall threshold of 5 signal to noise ratio units was set, and signals above this threshold were assumed to indicate positive recognition by the patient sera.

[2] = tested on: IgE of sera from soybean-sensitive patients; test: Peptide microarray, immune status of soybean-sensitive patients: IgE detection; conditions: sera from 50 patients, diluted 1:50; positive = signal to noise ratio above 5
Excerpt: as §1, §2

[3] = tested on: antibodies (IgE and IgG) in sera of soybean-protein sensitive patients; test: Peptide microarray, recognition of peptides by patient sera (IgE and IgG, total); conditions: sera from 50 patients
Excerpt: as §1, §2

[4] = tested on: antibodies of serum from patients with soy allergy; test: Phage display affinity selection and panning (ENTE1 library), sequencing and statistical motif analysis; conditions: for sequence count (lcount): 2013_S1_2. Panning; for all three epitopes (SEQ ID NO.: 17, 20, 15) recognized by the same patient: 23 patients; for epitope recognized by patients / two epitopes (SEQ ID NO.: 15, SEQ ID NO.: 17) recognized by the same patients: number of patients out of 23
Excerpt: Strong immunodominant allergic proteins, such as P34 thiol protease (Gly m Bd 30K), are known to induce allergic reactions, whereas other soybean proteins, although no potent inducers of a primary allergic response, can nevertheless trigger effector responses due to their binding by IgE. […] For example, only 65% of soybean sensitive individuals carry IgE recognizing P34 thiol protease (Gly m Bd 30K), which is considered one of the strongest allergenic soybean proteins (Yang et al., 2011). […] To identify many specific epitopes, i.e. amino acid sequences of soybean proteins, recognized by antibodies of sensitive patients, with high resolution down to the individual amino acids involved, the inventors applied a novel approach using a specific random phage library (EP 14 166 662.8). This phage library is generated using triplet codons with specific limitations, such that most amino acids are regularly represented throughout the entire library. In consequence, the library covers an unusually broad range of sequence variability and allows particular reliable statistical analysis. The library was contacted with serum samples derived from a biobank of 50 different soybean protein sensitive patients. After phage selection, the amino acid sequences that were bound by the patients' antibodies (anti-[allergen antibody] amino acid sequence) were identified by next generation sequencing and the results statistically analyzed. To confirm the allergy relevance of the identified amino acid sequences, their reactivity with patient IgE was determined by peptide arrays. Thereby, the inventors identified more than 300 potentially allergenic epitopes from different soybean proteins. The identified epitopes could be assigned to a total of 23 soybean proteins (Table 1) including P34 thiol protease (Gly m Bd 30K), β-conglycinin (Gly m Bd60 K) and Gly m Bd 28K, which are considered major soybean allergenic proteins (Yang et al., 2011).
24 μg of serum protein from patients with soy allergy were diluted in 2.5 ml PBS and coated in protein binding Immuno™ Tubes with Maxisorp™ for 1 h at 4° C. at 18 rpm (negative control: PBS). The coated tubes were washed with 2.5 ml blocking buffer (5% NFDM/1×PBS) and incubated with 4 ml blocking buffer at 4° C. for at least 15 min (18 rpm). The tubes were washed three times with 4 ml wash buffer I (1×PBS). 1 ml blocking buffer containing 30 μg of non-allergic serum protein and the phage library ENTE1 was added to each tube. The tubes were incubated for 2 h at 4° C. (18 rpm). After incubation, the tubes were washed 5 times with 1 ml 0.1% Tween/1×PBS and subsequently with 0.5% Tween/1×PBS. Then the bound phages were eluted using 1 ml of elution buffer (0.1 M Glycin.HCl pH 2.2). The tubes were incubated 5 min and vortexed several times. The eluate was immediately neutralized with 200 μl neutralization buffer (1 M Tris.HCl pH 8.2). In the first selection round 4×10^11 cfu of the ENTE1-library were used per tube. In the second selection round 1000×the recovered phages were inserted.
TG1 (λ) cells were grown in 250 ml baffled culture flasks in 10 ml dYT at 37° C. until they reached an OD600 about 0.5-1.0. The cells were incubated with eluted phage for 20 min at 37° C. with 100 rpm agitation. After incubation, the solution was immediately poured on dYT-agar plates (25×25 cm) containing 200 μg/ml ampicillin and incubated overnight at 30° C.
After overnight incubation the colonies were resuspended in 25 ml dYT containing 1×10^10 cfu/ml M13K07. The cells were diluted in 25 ml dYT containing 500 μg/ml ampicillin and 1×10^10 cfu/ml M13K07 using a 250 ml baffled culture flasks to obtain a cell density of OD600 0.5. The cells were incubated for 1 h at 37° C. with 180 rpm agitation. Afterwards the culture was growing about 13 h at 30° C. with 180 rpm agitation. […]

ISQQDRHRI (peptide P16) [154] was tested, and the “Number of IgG-positive sera” value [1] was 13, the “Number of IgE-positive sera” value [2] was 28 and the “total (IgE- and IgG-positive sera)” value [3] was 42.

For “GEIMCWREVVTQHQQHA (glycine max) [SEQ ID NO.: 707]”, the “sequence count (lcount)” value [4] was 122.

With QHQQ the “motive count, first panning” value ([4]; Serum 1, 1. Panning round) was 407 counts and the “motive count, second panning” value ([4]; Serum 1, 2. Panning round) was 825 counts.

EIPRPR (glycine max) [SEQ ID NO.: 20] was tested, and the “all three epitopes (SEQ ID NO.: 17, 20, 15) recognized by the same patient” value [4] was “one” and the “epitope recognized by patients” value [4] was 3/23.

HITFSREEGSI (peptide P5) [35] was tested, and the “Number of IgG-positive sera” value [1] was 2, the “Number of IgE-positive sera” value [2] was 12 and the “total (IgE- and IgG-positive sera)” value [3] was 14.

With DEGEQPRPFPFPRPR (peptide P7) [54] the “Number of IgG-positive sera” value [1] was 2, the “Number of IgE-positive sera” value [2] was 2 and the “total (IgE- and IgG-positive sera)” value [3] was 4.

With SQSHGFHGLCNRDHNCA (peptide P2) [100] the “Number of IgG-positive sera” value [1] was 1, the “Number of IgE-positive sera” value [2] was 7 and the “total (IgE- and IgG-positive sera)” value [3] was 8.

VEEEEECEEGQI (peptide P9) [50] was tested, and the “Number of IgG-positive sera” value [1] was 17, the “Number of IgE-positive sera” value [2] was 32 and the “total (IgE- and IgG-positive sera)” value [3] was 50.

In the case of SHHDQPRQHA (peptide P4) [28], the “Number of IgG-positive sera” value [1] is reported as 6, the “Number of IgE-positive sera” value [2] is reported as 12 and the “total (IgE- and IgG-positive sera)” value [3] is reported as 18.

“GIEPCSKYSQHQQHVQN (glycine max) [SEQ ID NO.: 706]” was tested, and the “sequence count (lcount)” value [4] was 250.

In the case of EVSFASQVLIY (peptide P3) [94], the “Number of IgG-positive sera” value [1] is reported as 3, the “Number of IgE-positive sera” value [2] is reported as 6 and the “total (IgE- and IgG-positive sera)” value [3] is reported as 9.

SDKYQEEFQPR (peptide P10) [127] was tested, and the “Number of IgG-positive sera” value [1] was 1, the “Number of IgE-positive sera” value [2] was 10 and the “total (IgE- and IgG-positive sera)” value [3] was 12.

In the case of FDQKESQHFS (peptide P17) [345], the “Number of IgG-positive sera” value [1] is reported as 1, the “Number of IgE-positive sera” value [2] is reported as 0 and the “total (IgE- and IgG-positive sera)” value [3] is reported as 2.

In the case of EFLKYQQEQG (peptide P12) [127], the “Number of IgG-positive sera” value [1] is reported as 12, the “Number of IgE-positive sera” value [2] is reported as 12 and the “total (IgE- and IgG-positive sera)” value [3] is reported as 24.

RRFYLAGNQEQEFL (peptide P15) [126] was tested, and the “Number of IgG-positive sera” value [1] was 2, the “Number of IgE-positive sera” value [2] was 3 and the “total (IgE- and IgG-positive sera)” value [3] was 6.

With NSERD (glycine max) [SEQ ID NO.: 15] the “all three epitopes (SEQ ID NO.: 17, 20, 15) recognized by the same patient” value [4] was “one”, the “epitope recognized by patients” value [4] was 7/23 and the “two epitopes (SEQ ID NO.: 15, SEQ ID NO.: 17) recognized by the same patients” value [4] was 5/23.

With QDQEEDEEDE (peptide P20) [104] the “Number of IgG-positive sera” value [1] was 2, the “Number of IgE-positive sera” value [2] was 5 and the “total (IgE- and IgG-positive sera)” value [3] was 7.

“GFNLCNRDRPAP (Ac-GFNLCNRDRPAP; not fully specified (C-terminus); also: Ebes linker, place not given here, Lys(azide), place not given here) [Peptide P1, 100]” was tested, and the “Number of IgG-positive sera” value [1] was 4, the “Number of IgE-positive sera” value [2] was 4 and the “total (IgE- and IgG-positive sera)” value [3] was 8.

For RNQACHA (glycine max) [SEQ ID NO.: 17], the “all three epitopes (SEQ ID NO.: 17, 20, 15) recognized by the same patient” value [4] was “one”, the “epitope recognized by patients” value [4] was 15/23 and the “two epitopes (SEQ ID NO.: 15, SEQ ID NO.: 17) recognized by the same patients” value [4] was 5/23.

HAANVVGNKESQREAR [Peptide P18] was tested, and the “Number of IgG-positive sera” value [1] was 1, the “Number of IgE-positive sera” value [2] was 8 and the “total (IgE- and IgG-positive sera)” value [3] was 9.

TEKYQQNSSG (peptide P11) [127] was tested, and the “Number of IgG-positive sera” value [1] was 3, the “Number of IgE-positive sera” value [2] was 2 and the “total (IgE- and IgG-positive sera)” value [3] was 5.

KVLFSREEGQQQ (peptide P6) [35] was tested, and the “Number of IgG-positive sera” value [1] was 9, the “Number of IgE-positive sera” value [2] was 21 and the “total (IgE- and IgG-positive sera)” value [3] was 31.

For GVYNSQVDDEEEQNQRD (peptide P13) [159], the “Number of IgG-positive sera” value [1] was 1, the “Number of IgE-positive sera” value [2] was 7 and the “total (IgE- and IgG-positive sera)” value [3] was 8.

GYNPCRQEEDEELHHKC (peptide P19) [104] was tested, and the “Number of IgG-positive sera” value [1] was 6, the “Number of IgE-positive sera” value [2] was 9 and the “total (IgE- and IgG-positive sera)” value [3] was 15.

For HVVEQEFLD (peptide P14) [126], the “Number of IgG-positive sera” value [1] was 5, the “Number of IgE-positive sera” value [2] was 23 and the “total (IgE- and IgG-positive sera)” value [3] was 28.

With HIQEEECEGDL (peptide P8) [50] the “Number of IgG-positive sera” value [1] was 2, the “Number of IgE-positive sera” value [2] was 2 and the “total (IgE- and IgG-positive sera)” value [3] was 4.
